Measured values published in US5693677A, “Ceramide 3 derivatives based on monounsaturated fatty acids” (Gist-brocades N.V., priority 1994, dated 1997).
Values after ≈ are worked out from the molar mass of the structure shown.

Experiments:
[1] = Thermo-gravimetric analysis (TG/DTA) of ceramides, oxidation stability; format: physicochemical; details: 5° C./min; for Stability in thermo-gravimetric analysis: 25° to 180° C., oxygen (100 ml/min), in words
Procedure: Thermo-gravimetry (TG) and Differential Thermo-gravimetric Analysis (DTA) were carried out using the SSC 5200 system of Seiko, provided with the TG/DTA furnaces. Standard procedures were used to obtain the desired data.
Atmosphere oxygen (100 ml/min)
Reference empty, open Pt pan
Sample size ± 5 mg powder
Sample container open Pt pan

[2] = Solubility of ceramide 3 derivatives in emollients (visual inspection, maximum concentration before cloudiness); format: physicochemical; details: for solubility: organic solvent or mixture
Procedure: The compound produced in Example 1, N-oleoyl phytosphingosine (also called Ceramide IIIB) was tested by solubilisation in isocetyl alcohol (Eutanol™ G16, Henkel), isostearic acid (Emersol, Henkel), triglycerides (Myritolo 318, J. Dekker), wallnut oil (J. Dekker) and avocado oil (J. Dekker).
Increasing amounts of the compound were added to the solvent and stirred under nitrogen for 30 minutes at 45° C. After cooling to room temperature (22° C.±2° C.) the solutions were kept in the dark. After 1, 24 and 48 hours the solutions were visually inspected. The maximum concentration was determined before the solution turned cloudy, indicating the presence of insoluble crystals.
The solubility of a saturated ceramide 3 derivative, N-stearoylphytosphingosine, was also determined.

[3] = system: SDS-damaged skin; test: Effects of ceramide IIIB formulations on SDS-damaged skin, skin humidity (corneometry); format: in vivo, human (female volunteers); details: skin pretreated with a surfactant (SDS), topical
Procedure: The corneometer CM 820 PC (Courage and Khazaka, Cologne, Germany) registers the electrical capacitance of the skin surface, which is a measure of the degree of moisture on the skin's surface. The capacitance is expressed digitally in arbitrary units (a.u.). Three measurements were performed on each test area and the mean was used to define hydration state of the stratum corneum.
(§1) after damaging the skin with SDS
(§2) 1 hour after last application on days 3, 7, 14
(§3) Five female volunteers at the age of 22-43 years with healthy skin were included in the test.
(§4) Measurements were carried out at a temperature of 22°±1° C. and a relative humidity of 60±10%. Subjects were accustomed to ambient conditions for 20 min prior to any measurement. The test was carried out on the volar forearms. The skin of the forearms was treated with a 5% aqueous solution of sodium lauryl sulphate (SDS) and an occlusive dressing applied. The dressing was removed 2 h later, and the regions gently washed with water and air-dried. After 30 min the measurements were done. Then the three test products were applied, one area remained untreated. The dose of application was about 2 mg/cm^2. In the following 14 days a home application in the morning and evening took place.
Measurements were evaluated during the treatment period on day 3, 7 and 14 one hour after the last daily application. […]

[4] = system: SDS-damaged skin; test: Effects of ceramide IIIB formulations on SDS-damaged skin, trans-epidermal water loss (TEWL); format: in vivo, human (female volunteers); details: 0.2 and 0.5% Ceramide IIIB
Procedure: (§5) Measurements of trans-epidermal water loss (TEWL) were performed with the Tewameter (Courage & Khazaka, Cologne, Germany). The Tewameter is a device for measurement of water evaporation on skin surfaces based on the diffusion principle discovered by A. Fick in 1885.
as §1, §2, §3, §4
Measurements were evaluated during the treatment period on day 3, 7 and 14 one hour after the last daily application. Use of other cosmetic products was restricted on the test areas throughout the whole study.

[5] = system: skin (SDS-challenge); test: Protective effects of ceramide IIIB formulations against SDS-challenge, TEWL; format: in vivo, human (female volunteers); details: pretreatment, in words (TEWL and skin colour)
Procedure: as §5
before start of treatment;
two hours after last application on day 7;
2 hours after irritation with SDS (2 h under occlusion).
Two panels of each five female volunteers at the age of 19-55 years with healthy skin were included in the test.
Measurements were carried out at a temperature of 22°±1° C. and a relative humidity of 60±10%. Subjects were accustomed to ambient conditions for 20 min prior to any measurement. The test was carried out on the volar forearms. Initially untreated skin was measured in all four areas to find baseline values. Then the three test products were applied, one area remained untreated. The dose of application was about 2 mg/cm^2. In the following 7 days a home application in the morning and evening took place. Measurements were evaluated during the treatment period on day 7 two hours after the last daily application. […]
The results of TEWL and skin colour measurements are presented in respectively FIGS. 5 and 6. Values are expressed as (Valueday7 -Valueday0)/Valueday0 ×100%.

solubility ([2]; avocado oil) [µg/mL] | solubility ([2]; emersol (isostearic acid)) [µg/mL] | solubility ([2]; eutanol g16 (isocetyl alcohol)) [µg/mL] | solubility ([2]; myritol 318 (triglycerides)) [µg/mL] | solubility ([2]; wallnut oil) [µg/mL] | Temperature at which weight increase (oxidation) followed by decomposition starts ([1]; oxygen) | Compound | Stability in thermo-gravimetric analysis [1] | Recovery of diminished water-retaining properties of skin [3] | TEWL dose-response [4] | Solubility compared with saturated analogue ([2]; emollients, in words) | Protection from SDS-induced skin damage [5]
50 (≈ 85.6 µM) | 600 (≈ 1030 µM) | 1600 (≈ 2740 µM) | 50 (≈ 85.6 µM) | 50 (≈ 85.6 µM) |  | CCCCCCCCCCCCCCCCCC(=O)N[C@@H](CO)[C@H](O)[C@H](O)CCCCCCCCCCCCCC [Ceramide III, N-stearoylphytosphingosine, reference compound] | most stable compound as is illustrated by the absence of change of weight |  |  |  | 
< 200 | 8000 (≈ 13700 µM) | 12000 (≈ 20600 µM) | 800 (≈ 1370 µM) | 200 (≈ 344 µM) |  | CCCCCCCC/C=C\CCCCCCCC(=O)N[C@@H](CO)[C@H](O)[C@H](O)CCCCCCCCCCCCCC [Ceramide IIIB, N-oleoylphytosphingosine] | behaviour similar to ceramide 3, although showing a steadily increasing baseline, probably due to hydration. However, no sudden increase in weight followed by decomposition is observed | high capacity for recovering diminished water-retaining properties of the skin | a clear dose-response effect | solubilizes much better than its saturated analogue | protects the skin from SDS-induced damage
 |  |  |  |  | ca. 80 °C | CCCCC/C=C\C/C=C\CCCCCCCC(=O)N[C@@H](CO)[C@H](O)[C@H](O)CCCCCCCCCCCCCC [sample IIIA, N-linoleoylphytosphingosine] | increase in weight (oxidation) followed by decomposition |  |  |  | 
